Data: publication PMC6264179, “Triterpenoids from the Roots of Sanguisorba tenuifolia var. Alba” (Molecules, 2011)

target: α-Glucosidase (EC.3.2.1.20); assay: α-Glucosidase inhibition assay (p-nitrophenyl-α-D-glucopyranoside substrate, absorbance at 405 nm); format: biochemical; conditions: in vitro; pH 6.8 phosphate buffer, 37 °C, 15 min; acarbose positive control; read-out: IC50 (mM ± SEM, mM), α-glucosidase inhibitory activity
Method: Open column chromatography (CC) was carried out using silica gel (200-300 mesh, Qingdao Marine Chemical Co., Qingdao, China) or octadecyl silica gel (ODS, 25-40 μm, Fuji) as stationary phases. TLC employed precoated silica gel plates (5-7 μm, Qingdao Marine). Preparative HPLC was carried out on a Waters 600 instument equipped with a Waters UV-2487 detector. A Waters Sunfire prep C18 OBD (19 × 250 mm i.d.) column was used for this purpose. The IR spectra were recorded as KBr pellets on a Jasco 302-A spectrometer. Optical rotation was recorded on a Jasco P-2000 polarimeter. HRESIMS were measured on a FTMS-7 instrument (Bruker Daltonics). Melting points were determined on a Gallenkemp apparatus and are uncorrected. The ^1H-, ^13C- and 2D (^1H-^1H COSY, HSQC, HMBC, NOESY) NMR spectra were recorded on a Bruker AMX-400 spectrometer using standard pulse sequences. Chemical shifts are reported in ppm (δ), and scalar coupling are reported in Hz. GC analyses were carried out using a Fuli 9790 instrument equipped with a DM-5 column (0.25 μm, 30 m × 0.25 mm, Dikma, China). α-Glucosidase (EC.3.2.1.20) from Saccharomyces sp. was purchased from Wako Pure Chemical Indutries Ltd. (Wako 076-02841). Other reagents were purchased from various commercial sources.
α-Glucosidase (EC.3.2.1.20) enzyme inhibition assay has been performed according to the literature. α-Glucosidase (25 μL, 0.2 U/mL), various concentrations of samples (25 μL), and 67 mM phosphate buffer (pH 6.8, 175 μL) were mixed at room temperature for 10 min. Reactions were initiated by the addition of 23.2 mM p-nitrophenyl-α-D-glucopyranoside (25 μL). The reaction mixtures were incubated at 37 °C for 15 min in a final volume of 250 μL, and then 1 M Na2CO3 (50 μL) was added to the incubation solution to stop the reaction. The activities of glucosidase were detected in a 96-well plate, and the absorbance was read at 405 nm by a microplate spectrophotometer (Spectra Max, Molecular Devices, USA). The negative control was prepared by adding phosphate buffer instead of the sample in the same way as the test. […] The blank was prepared by adding phosphate buffer instead of α-glucosidase using the same method. The inhibition rates (%) were calculated from the following formula:
[(ODnegative control− ODblank) − (ODtest− ODtest blank)] / ([…]− ODblank) × 100%

Row | Structure (SMILES) | IC50 [mM]
1 | CC1(C)CCC2(C(=O)OC3OC(CO)C(O)C(O)C3O)CCC3(C)C(=CCC4C5(C)CC(=O)C(O)C(C)(C)C5CCC43C)C2C1O [Compound 1, 2-oxo-3β,19α-dihydroxyolean-12-en-28-oic acid β-D-gluco-pyranosyl ester] | 1.88 ± 0.28
2 | C[C@@H]1CC[C@]2(C(=O)O)CC[C@]3(C)C(=CCC4[C@@]5(C)CC(=O)[C@H](O)C(C)(C)C5CC[C@]43C)C2[C@@]1(C)O (some centres unmarked) [Compound 2, 2-oxopomolic acid] | 1.35 ± 0.04
3 | C[C@@H]1CC[C@]2(C(=O)O[C@@H]3O[C@H](CO)[C@@H](O)[C@H](O)[C@H]3O)CC[C@]3(C)C(=CCC4[C@@]5(C)CC(=O)[C@H](O)C(C)(C)C5CC[C@]43C)C2[C@@]1(C)O (stereo partly drawn) [Compound 3, 2-oxopomolic acid β-D-glucopyranoside] | 2.22 ± 0.06
4 | CC1CCC2(C(=O)OC3OC(CO)C(O)C(O)C3O)CCC3(C)C(=CCC4C5(C)CC(O)C(=O)C(C)(C)C5CCC43C)C2C1(C)O [Compound 4, 2α,19α-dihydroxy-3-oxo-12-ursen-28-oic acid β-D-glucopyranosyl ester] | 1.56 ± 0.04
5 | C[C@@H]1CC[C@]2(C(=O)O)CC[C@]3(C)C(=CCC4[C@@]5(C)C[C@@H](O)C(=O)C(C)(C)C5CC[C@]43C)C2[C@@]1(C)O (stereo partly drawn) [Compound 5, 2α,19α-dihydroxy-3-oxo-12-ursen-28-oic acid] | 1.23 ± 0.09
6 | CC1(C)C(=O)[C@H](O)C[C@@]2(C)C1CC[C@]1(C)C2CC=C2C3[C@@H](O)C(C)(C)CC[C@]3(C(=O)O[C@@H]3O[C@H](CO)[C@@H](O)[C@H](O)[C@H]3O)CC[C@]21C (stereo partly drawn) [Compound 6, 2α,19α-dihydroxy-3-oxo-olean-12-en-28-oic acid β-D-glucopyranosyl ester] | 2.01 ± 0.06
7 | C[C@@H]1CC[C@]2(C(=O)O[C@@H]3O[C@H](CO)[C@@H](O)[C@H](O)[C@H]3O)CC[C@]3(C)C(=CCC4[C@@]5(C)C[C@@H](O)[C@H](O)C(C)(C)C5CC[C@]43C)C2[C@@]1(C)O (some centres unmarked) [Compound 7, rosamutin] | 3.28 ± 0.08
8 | C[C@@H]1CC[C@]2(C(=O)O)CC[C@]3(C)C(=CC[C@@H]4[C@@]5(C)C[C@@H](O)[C@@H](O)C(C)(C)[C@@H]5CC[C@]43C)[C@@H]2[C@]1(C)O [Compound 8, euscaphic acid] | 0.67 ± 0.09
9 | C[C@@H]1CC[C@]2(C(=O)O[C@@H]3O[C@H](CO)[C@@H](O)[C@H](O)[C@H]3O)CC[C@]3(C)C(=CCC4[C@@]5(C)C[C@@H](O)[C@@H](O)C(C)(C)C5CC[C@]43C)C2[C@@]1(C)O (some centres unmarked) [Compound 9, kaji-ichigoside Fl] | 3.1 ± 0.24
10 | CC1(C)CC[C@]2(C(=O)O[C@@H]3O[C@H](CO)[C@@H](O)[C@H](O)[C@H]3O)CC[C@]3(C)C(=CCC4[C@@]5(C)C[C@@H](O)[C@H](O)C(C)(C)C5CC[C@]43C)C2[C@H]1O (some centres unmarked) [Compound 10, 24-deoxysericoside] | 3.52 ± 0.16
11 | C[C@@H]1CC[C@]2(C(=O)O)CC[C@]3(C)C(=CCC4[C@@]5(C)CC[C@H](OC(=O)C=Cc6ccc(O)cc6)C(C)(C)C5CC[C@]43C)C2[C@@H]1C (some centres unmarked) [Compound 12, p-coumaroylursolic acid] | 0.62 ± 0.06
12 | CC1CCC2(C(=O)OC3OC(CO)C(O)C(O)C3O)CCC3(C)C(=CCC4C5(C)CCC(OC6OCC(O)C(O)C6O)C(C)(C)C5CCC43C)C2C1(C)O (centres unmarked) [Compound 13, ziyu-glycoside I] | 3.62 ± 0.21
13 | C=C1C(C)CCC2(C(=O)OC3OC(CO)C(O)C(O)C3O)CCC3(C)C(=CCC4C5(C)CCC(OC6OCC(O)C(O)C6O)C(C)(C)C5CCC43C)C12 [Compound 14, 3β-[(α-L-arabinopyranosyl)oxy] urs-12,19(29)-dien-28-oic acid 28-β-D-glucopyranosyl ester] | 2.87 ± 0.06
14 | C[C@@H]1CC[C@]2(C(=O)O)CC[C@]3(C)C(=CC[C@@H]4[C@@]5(C)CC[C@H](O)C(C)(C)[C@@H]5CC[C@]43C)[C@@H]2[C@]1(C)O [Compound 15, pomolic acid] | 1.84 ± 0.12
